Source: ChEMBL document CHEMBL3351587, “Revised stereochemistry of ficifolidione and its biological activities against insects and cells” (J Nat Prod, 2015)
Calls of active or inactive are those of the source. The rule behind the calls is not given here.

What was measured:
[1] = test system: Musca domestica; test: Insecticidal activity against adult housefly at 44 ug/insect administered topically; format: functional, organism-based
[2] = test system: Culex pipiens; test: Insecticidal activity against mosquito larvae at 1.2 ug/insect administered as injection; format: functional, organism-based
[3] = test system: Culex pipiens; test: Insecticidal activity against mosquito larvae at 50 uM; format: functional, organism-based
[4] = Cytotoxicity against Sf9 cells after 48 hrs by WST-8 assay; format: functional, cell-based; settings: Spodoptera frugiperda, Sf9, 48 h
[5] = test system: Colon 26; test: Cytotoxicity against mouse Colon 26 cells after 48 hrs by WST-8 assay; format: functional, cell-based; settings: Colon 26, 48 h
[6] = Cytotoxicity against human HL60 cells after 48 hrs by WST-8 assay; format: functional, cell-based; settings: HL-60, 48 h
[7] = test system: Vero; test: Cytotoxicity against african green monkey Vero cells after 48 hrs by WST-8 assay; format: functional, cell-based; settings: Chlorocebus sabaeus
[8] = test system: Spodoptera litura; test: Insecticidal activity against cutworms at 4 mg/disk by leaf dik assay; format: functional, organism-based
[9] = test system: Spodoptera litura; test: Insecticidal activity against cutworms assessed as growth inhibition at 21 ug, po for a day followed by rearing on normal diet measured up to 7 days; format: functional, organism-based
[10] = test system: HL-60; test: Induction of apoptosis in human HL60 cells assessed as DNA fragmentation at 100 uM after 4 to 6 hrs by electrophoresis; format: functional, cell-based
[11] = test system: HL-60; test: Induction of apoptosis in human HL60 cells assessed as activation of caspase 3 at 100 uM after 4 to 6 hrs by immunoblotiing; format: functional, cell-based
[12] = test system: Spodoptera litura; test: Insecticidal activity against cutworms assessed as number of weight reduced larvae at 21 ug, po for a day followed by rearing on normal diet measured on day 1 (reference value: 10 no_unit); format: functional
[13] = test system: Spodoptera litura; test: Insecticidal activity against cutworms assessed as number of weight reduced larvae at 21 ug, po for a day followed by rearing on normal diet measured on day 2 (reference value: 10 no_unit); format: functional
[14] = test system: Spodoptera litura; test: Insecticidal activity against cutworms assessed as number of weight reduced larvae at 21 ug, po for a day followed by rearing on normal diet measured on day 3 (reference value: 10 no_unit); format: functional
[15] = test system: Spodoptera litura; test: Insecticidal activity against cutworms assessed as number of weight reduced larvae at 21 ug, po for a day followed by rearing on normal diet measured on day 4 (reference value: 10 no_unit); format: functional
[16] = test system: Spodoptera litura; test: Insecticidal activity against cutworms assessed as number of weight reduced larvae at 21 ug, po for a day followed by rearing on normal diet measured on day 5 (reference value: 8.7 no_unit); format: functional
[17] = test system: Spodoptera litura; test: Insecticidal activity against cutworms assessed as number of weight reduced larvae at 21 ug, po for a day followed by rearing on normal diet measured on day 6 (reference value: 6.7 no_unit); format: functional
[18] = test system: Spodoptera litura; test: Insecticidal activity against cutworms assessed as number of weight reduced larvae at 21 ug, po for a day followed by rearing on normal diet measured on day 7 (reference value: 6.3 no_unit); format: functional
[19] = test system: Colon 26; test: Cytotoxicity against mouse Colon 26 cells at 100 uM after 48 hrs by WST-8 assay; format: functional, cell-based

CC(C)C[C@@H]1C[C@@]2(CC[C@H]3C[C@@H]2C3(C)C)OC2=C1C(=O)C(C)(C)C(=O)C2(C)C
Activity [1]: inactive
Activity [2]: inactive
Activity [3]: inactive
IC50 [4]: 63.5 µM
IC50 [5]: 13.6 µM
IC50 [6]: 3.67 µM
IC50 [7]: 8.39 µM

CCC[C@@H]1C[C@@]2(CC[C@H]3C[C@@H]2C3(C)C)OC2=C1C(=O)C(C)(C)C(=O)C2(C)C
IC50 [4]: 99.2 µM
IC50 [5]: 14.2 µM
IC50 [6]: 23.5 µM
IC50 [7]: 21.4 µM

CCC[C@H]1C[C@@]2(CC[C@H]3C[C@@H]2C3(C)C)OC2=C1C(=O)C(C)(C)C(=O)C2(C)C
IC50 [4]: 30.1 µM
IC50 [5]: 12.6 µM
IC50 [6]: 19.4 µM
IC50 [7]: 14.4 µM

CC(C)C[C@H]1C[C@@]2(CC[C@H]3C[C@@H]2C3(C)C)OC2=C1C(=O)C(C)(C)C(=O)C2(C)C
Activity [1]: inactive
Activity [2]: inactive
Activity [8]: inactive
Activity [3]: inactive
growth inhibition (GI) [9]: Active
IC50 [4]: 32.1 µM
IC50 [5]: 8.96 µM
IC50 [6]: 2.9 µM
IC50 [7]: 12.4 µM
Activity [10]: Active
Activity [11]: Active
Activity [12]: 10
Activity [13]: 10
Activity [14]: 9.7
Activity [15]: 9
Activity [16]: 8.7
Activity [17]: 7.3
Activity [18]: 7

CC1(C)C(=O)CC(=O)C(C)(C)C1=O
Activity [19]: inactive

C=C1CC[C@H]2C[C@@H]1C2(C)C
Activity [19]: inactive
